Test results as given in patent US11766444B2, “Pharmaceutical composition for preventing or treating degenerative brain disorders including HDL-APOM-S1P as active ingredient” (Kyungpook National University Industry-Academic Cooperation …, priority 2017, dated 2023).
Each block holds one compound with its values, some of them ahead of it.

Key:
[1] = tested on: AD patients; conditions: cited from earlier work; for delaying cognitive decline compared to placebo: large-scale clinical trial, one year
[2] = S1P, ApoM, HDL-S1P and HDL-ApoM levels in plasma of APP/PS1 mice after HDL-ApoM-S1P loading; type: in vivo, mouse; conditions: i.v. 25 μl twice a week for 4 weeks (8 times), vs untreated APP/PS1 mice
From the text: (§1) Transgenic mice overexpressing hAPP695swe (APPswe) and presenilin-1M146V (PS1) mutations were used as mouse models of the Alzheimer's disease. These are mouse lines produced by GlaxoSmithKline (Harlow, UK) with the standard technology for C57BL background (Charles River, UK), which double heterozygote mutant mice (APP/PS1 tg mice) were produced by backcrossing APPswe mice with pure C57BL/6 backgrounds and crossing PS1 mice
(§2) After collecting blood from mice, the obtained blood was separated into erythrocytes and plasma by centrifugation. The separated erythrocytes are reacted with 10 uM sphingosine at 37° C. for 1 hour, and then reacted for 1 hour at 37° C. after mixing again with the separated plasma. After completion of the reaction, erythrocytes and plasma were separated by centrifugation, and only the plasma was collected again. The plasma thus obtained was loaded with S1P in HDL (HDL-ApoM-S1P loading), which was illustrated in FIG. 1.
The plasma solution thus obtained was intravenously injected 25 μl into mice twice a week for 4 weeks (total 8 times) according to the experimental outline shown in FIG. 2. As a control group, 3 μM S1P (Avanti) and […] ApoM (Mybiosource, SEQ ID NO: 1) were injected intravenously with 25 μl in mice twice a week for 4 weeks (eight times in total).
To collect blood from mouse models (APP/PS1 tg mice or APP/PS1/ApoM tg mice) and normal control mice (WT), the mice were anesthetized first, and 500 μl to 700 μl of blood were collected in heparin tubes (BD Falcon) by cardiac drawing. Each blood sample was then centrifuged at 1,200 rpm for 5 minutes to separate plasma from the supernatant. This plasma sample was stored at −80° C. before being used for analysis.
60 μl of plasma sample was placed in the ultrafast centrifuge tube, and then the same amount of PBS (Gibco) solution was added to form a layer on the plasma. A high speed centrifuge (HITACHI cp100wx Centrifuge P70AT rotor) was used to centrifuge at 70,000 rpm for 3 hours at 4° C. 60 μl of the lower layer of the sample separated into two layers was transferred into a new ultra-centrifuge tube. […]
Extraction and quantification of S1P was performed in the following manner. […] The dried lipid extract was resuspended in 25 μl of 0.2% Igepal CA-630 (Sigma-Aldrich), and the concentration level of each lipid was quantified by the UPLC system using the column ACQUITY BEH Shield RP18 1.7 μm 2.1×50 mm (186002853) and 0.1% of NH4OH.
Using a commercial ELISA kit (CUSABIO Human ApoM ELISA Kit and Mouse ApoM ELISA Kit), the amount of apolipoprotein M (ApoM) contained in the mouse plasma or HDL fractionated therefrom was quantified according to the manufacturer's protocol. […]

[3] = tested on: amyloid-β; assay: Amyloid-β deposition in brain tissue (cerebral cortex), thioflavin S staining and immunofluorescence; type: in vivo, mouse; conditions: APP/PS1 mice, vs 9-month-old untreated APP/PS1 mice
From the text: as §1
(§3) After collecting blood from mice, the obtained blood was separated into erythrocytes and plasma by centrifugation. The separated erythrocytes are reacted with 10 uM sphingosine at 37° C. for 1 hour, and then reacted for 1 hour at 37° C. after mixing again with the separated plasma. […]
(§4) After fixing the cerebral (especially cortex) and hippocampus of mice with 4% paraformaldehyde, the immobilized tissues were incubated with 0.5% thioflavin S (Sigma-Aldrich) or anti-20G10 against Aβ42 (mouse, 1:1000), anti-G30 against Aβ40 (rabbit, 1:1000), anti-lba-1 (rabbit, 1:500, Wako), and anti-GFAP (rabbit, 1:500, DAKO), respectively. […] The sites were analyzed using a laser scanning confocal microscope or Olympus BX51 microscope equipped with Fluoview SV1000 imaging software (Olympus FV1000, Japan). Metamorph software (Molecular Devices) was used to quantify the percentage of area of stained area to area of total tissue. […]

[4] = tested on: tau; assay: Tau deposition in brain tissue (AT8 immunofluorescence); type: in vivo, mouse; conditions: APP/PS1 mice, cerebral cortex, vs 9-month-old untreated APP/PS1 mice
From the text: as §1, §3, §4

[5] = tested on: microglia; assay: Activity of microglia (Iba1 staining), neuroinflammatory response; type: in vivo, mouse; conditions: APP/PS1 mice, brain tissue, vs untreated APP/PS1 mice
From the text: as §1, §3, §4

[6] = tested on: astrocytes; assay: Activity of astrocytes (GFAP staining), neuroinflammatory response; type: in vivo, mouse; conditions: APP/PS1 mice, brain tissue, vs untreated APP/PS1 mice
From the text: as §1, §3, §4

[7] = tested on: APP/PS1 mice; assay: Morris water maze (MWM) test; type: in vivo, mouse; conditions: 10 days training, probe trial day 11
From the text: as §1, §2
The plasma solution thus obtained was intravenously injected 25 μl into mice twice a week for 4 weeks (total 8 times) according to the experimental outline shown in FIG. 2. […]
In order to identify potential effects on learning and memory, Morris water maze (MWM) and fear conditioning experiments were performed according to known methods. […] All experiments were recorded using a charge-coupled device (CCD) camera with video monitor and computer. […]

Compound: COc1ccc2cc([C@H](C)C(=O)O)ccc2c1 [naproxen]
- delaying cognitive decline compared to placebo [1]: not effective

- level of ApoM in plasma [2]: did not show a difference
- level of HDL-ApoM in the HDL fraction [2]: did not show a difference
- level of HDL-S1P in the HDL fraction [2]: did not show a difference
- level of S1P in plasma [2]: did not show a difference
Compound: CCCCCCCCCCCCC/C=C/[C@@H](O)[C@@H](N)COP(=O)(O)O [S1P, Sphingosine-1-Phosphate]
- Aβ40 deposition in brain tissue [3]: did not show a significant difference
- Aβ42 deposition in brain tissue [3]: did not show a significant difference
- tau deposition (AT8) in brain tissue [4]: did not show a significant difference
- inflammatory activity of microglia [5]: no significant difference
- inflammatory activity of astrocytes [6]: no significant difference
- learning and memory (spatial memory formation), MWM [7]: severe impairment

Compound: C[C@]12C=CC(=O)C=C1CC[C@@H]1[C@@H]2C(=O)C[C@@]2(C)[C@H]1CC[C@]2(O)C(=O)CO [prednisone]
- cognitive decline, treatment vs placebo groups ([1]; low doses for one year): no difference

Compound: CCN(CCO)CCCC(C)Nc1ccnc2cc(Cl)ccc12 (centres unmarked) [hydroxychloroquine]
- preventing memory degradation ([1]; 18-month experiment): no protective effect

Compound: CS(=O)(=O)c1ccc(C2=C(c3ccccc3)C(=O)OC2)cc1 [rofecoxib]
- delaying cognitive decline compared to placebo [1]: not effective
- efficacy in mild to moderate AD patients ([1]; trial for 1 year): ineffective

Compound: CS(=O)(=O)Nc1ccc([N+](=O)[O-])cc1Oc1ccccc1 [nimesulide]
- rate of cognitive change ([1]; AD patients, small 24-week studies): no significant difference

Compound: O=C(O)Cc1ccccc1Nc1c(Cl)cccc1Cl [diclofenac]
- index of cognitive decline vs placebo ([1]; mild to moderate AD patients, diclofenac in combination with misoprostol, after 25 weeks): no significant difference
